Assay [1] has as its system TNF-α Production In THP1 Cells. The experiment in a line: Inhibition of LPS-induced TNF-α production in THP1 cells, in vitro assay. The assay is classed as cell-based, human. The settings on record: THP-1 cells, LPS 0.5 µg/ml, 2 h, TNF-α in supernatant by ELISA, read-out: IC50 (concentration corresponding to half-maximal reduction in 450 nm absorbance), TNF-α release. How it is done: The ability of the compounds of this invention to inhibit the TNF-α release was determined using a minor modification of the methods described in Blifeld, C. et al. Transplantation, Vol. 51(2), 498-503, (1991). THP-1 cells were suspended in culture medium [RPMI (Gibco-BRL, Gailthersburg, MD) containing 15% fetal bovine serum, 0.02 mM 2-mercaptoethanol], at a concentration of 2.5 x 10^6 cells/ml and then plated in 96 well plate (0.2 ml aliquots in each well). Test compounds were dissolved in DMSO and then diluted with the culture medium such that the final DMSO concentration was 5%. 20 μl aliquots of test solution or only medium with DMSO (control) were added to each well. The cells were incubated for 30 min., at 37 °C. LPS (Sigma, St. Louis, MO) was added to the wells at a final concentration of 0.5 μg/ml, and cells were incubated for an additional 2 h. At the end of the incubation period, culture supernatants were collected and the amount of TNF-α present was determined using an ELISA assay as described below. The amount of human TNF-α present was determined by a specific trapping ELISA assay using two anti-TNF-α antibodies (2TNF-H22 and 2TNF-[…]) described in Reimund, J. M., et al. GUT. Vol. 39(5), 684-689 (1996). Polystyrene 96-well plates were coated with 50 μl per well of antibody 2TNF-H22 in PBS (10 μg/ml) and incubated in a humidified chamber at 4 °C overnight. The plates were washed with PBS and then blocked with 5% nonfat-dry milk in PBS for 1 hour at room temperature and washed with 0.1% BSA (bovine serum albumin) in PBS. TNF standards were prepared from a stock solution of human recombinant TNF-α (R&D Systems, Minneapolis, MN). The concentration of the standards in the assay began at 10 ng/ml followed by 6 half log serial dilution's. […] Optical density of the sample and the reference were read at 450 nm and 650 nm, respectively. TNF-α levels were determined from a graph relating the optical density at 450 nm to the concentration used. The IC50 value was defined as the concentration of the test compound corresponding to half-maximal reduction in 450 nm absorbance. […]

Another assay has as its system TNF-α Production In Rats. The experiment in a line: Inhibition of LPS-induced TNF-α production in rats, in vivo assay. Also noted: species or system Female Sprague-Dawley rats. The settings on record: dosed orally at 30 mg, LPS 50 µg/kg intraperitoneally after 30 min, serum TNF-α 1.5 h later by ELISA. Here is the method: Female Sprague-Dawley rats weighing 110-140 grams (Charles River, Hollister, CA) were acclimated for one week. Groups containing 8 […] each were dosed orally either with the test compounds dissolved in an aqueous vehicle containing 0.9% sodium chloride, 0.5% sodium carboxymethyl-cellulose, 0.4% polysorbate 80, 0.9% benzyl alcohol (CMC vehicle) or only vehicle (control group). After 30 min., the […] were injected intraperitoneally with 50 µg/kg of LPS (Sigma, St. Louis, MO).

This is an account of results in patent EP1075467B1, “PYRAZOLE DERIVATIVES AS P-38 MAP KINASE INHIBITORS” (F. Hoffmann-La Roche AG, priority 1998, dated 1999).

Where a name gives a salt, the structure may show the parent alone. Read-outs that look alike come from different tables or passages of the source.

Turning to `CN1CCN(C(=O)COc2cccc(C(=O)c3cnn(-c4ccc(F)cc4)c3N)c2)CC1` [compound 38], in assay [1], the IC50 turned out to be 690 nM.
For the molecule `Nc1c(C(=O)c2cccc(C#CCN3CCOCC3)c2)cnn1-c1ccc(F)cc1` [compound 3, 5-Amino-1-(4-fluorophenyl)-4-[3-{3-(morpholin-4-yl)prop-1-ynyl}benzoyl]pyrazole], the “% Inhibition (TNF-α content in the test group relative to the vehicle treated group)” value in the assay with TNF-α Production In Rats is recorded as 96%.
Turning to `Nc1c(C(=O)c2cccc(CCCN3CCOCC3)c2)cnn1-c1ccc(F)cc1` [compound 6, 5-Amino-1-(4-fluorophenyl)-4-[3-(3-morpholin-4-ylpropyl)benzoyl]pyrazole hydrochloride], the IC50 in assay [1] (Homo sapiens) came to 1040 nM.
As to `Nc1c(C(=O)c2cccc(CCS(N)(=O)=O)c2)cnn1-c1ccc(F)cc1` [compound 50, 5-Amino-4-[3-(2-aminosulfonylethyl)benzoyl]-1-(4-fluorophenyl)pyrazole], in assay [1] (Homo sapiens), the IC50 stood at 510 nM.
Turning to `CNC(=O)COc1cccc(C(=O)c2cnn(-c3ccc(F)cc3)c2N)c1` [compound 34, 5-Amino-1-(4-fluorophenyl)-4-[3-(methylaminocarbonylmethyloxy)-benzoyl]pyrazole], the “% Inhibition (TNF-α content in the test group relative to the vehicle treated group)” value with TNF-α Production In Rats is recorded as 75%.
